Data published in patent US20070128217A1 (priority 2003, published 2007).

Assays:
[1] = tested on: recombinant human anti-SARS-CoV antibody 03-018; assay type: binding; parameters: Binding of antibody 03-018 to linear peptides of the N protein of SARS-CoV Urbani / Binding of antibody 03-018 to looped/cyclic peptides of the N protein of SARS-CoV Urbani: unit not given here
[2] = tested on: control sera (pooled serum of ten healthy LUMC hospital workers; commercial negative donor pooled serum from the Dutch bloodbank); assay type: binding, human; parameters: Binding of Control serum LUMC to linear peptides / Binding of Control serum Blood-bank to linear peptides / Binding of Control serum LUMC to looped peptides / Binding of Control Serum Blood-Bank to Looped peptides / Binding of Control serum LUMC to linear peptides of the protein M of SARS-CoV Urbani / Binding of Control serum Blood-bank to linear peptides of the protein M of SARS-CoV Urbani / Binding of Control serum LUMC to looped peptides of the protein M of SARS-CoV Urbani / Binding of Control Serum Blood-Bank to Looped peptides of the protein M of SARS-CoV Urbani: unit not given here
[3] = tested on: antibodies in sera from SARS patients (sera 1a, 1b, 2, 6, 37, 62, London, SARS-yellow, SARS-green); assay type: binding, human; parameters: Binding of serum 6 to linear peptides of protein X1 of SARS-CoV Urbani / Binding of serum 37 to linear peptides of protein X1 of SARS-CoV Urbani / Binding of serum 6 to looped/cyclic peptide (PEPSCAN-ELISA) / Binding of serum 37 to looped/cyclic peptide (PEPSCAN-ELISA) / Binding of serum 37 to looped/cyclic peptides of protein X1 of SARS-CoV Urbani / Binding of serum 6 to linear peptides of protein X2 / Binding of serum 37 to linear peptides of protein X2 / Binding of serum 37 to looped/cyclic peptides of protein X2 of SARS-CoV Urbani / Binding of serum 6 to linear peptides of protein M of SARS-CoV Urbani / Binding of serum 37 to linear peptides of protein M of SARS-CoV Urbani / Binding of serum 6 to looped/cyclic peptides of protein M of SARS-CoV Urbani / Binding of serum 37 to looped/cyclic peptides of protein M of SARS-CoV Urbani / Binding of serum 6 to linear peptides of protein X3 of SARS-CoV Urbani / Binding of serum 37 to linear peptides of protein X3 of SARS-CoV Urbani / Binding of serum 37 to looped/cyclic peptides of protein X3 of SARS-CoV Urbani / Binding of serum 6 to linear peptides of protein X4 of SARS-CoV Urbani / Binding of serum 37 to linear peptides of protein X4 of SARS-CoV Urbani / Binding of serum 37 to looped/cyclic peptides of protein X4 of SARS-CoV Urbani / Binding of serum 6 to linear peptides of protein X5 of SARS-CoV Urbani / Binding of serum 37 to linear peptides of protein X5 of SARS-CoV Urbani / Binding of serum 37 to looped/cyclic peptides of protein X5 of SARS-CoV Urbani / Binding of serum 6 to linear peptides of protein N of SARS-CoV Urbani / Binding of serum 37 to linear peptides of protein N of SARS-CoV Urbani / Binding of serum 6 to linear peptide (PEPSCAN-ELISA) / Binding of serum 1a to looped/cyclic peptides of protein N of SARS-CoV Urbani / Binding of serum 1b to looped/cyclic peptides of protein N of SARS-CoV Urbani / Binding of serum 2 to looped/cyclic peptides of protein N of SARS-CoV Urbani / Binding of serum 6 to looped/cyclic peptides of protein N of SARS-CoV Urbani / Binding of serum 37 to looped/cyclic peptides of protein N of SARS-CoV Urbani / Binding of serum 62 to looped/cyclic peptides of protein N of SARS-CoV Urbani / Binding of serum London to looped/cyclic peptides of protein N of SARS-CoV Urbani / Binding of serum SARS-green to looped/cyclic peptides of protein N of SARS-CoV Urbani: unit not given here
[4] = tested on: rabbit serum obtained by immunizing a rabbit with the SARS-CoV strain Frankfurt 1; assay type: binding; parameters: Binding of a rabbit serum to linear peptides / Binding of a rabbit serum to looped peptides / Rabbit serum linear peptides / Rabbit serum looped peptides / Binding of a rabbit serum to linear peptides of protein N of SARS-CoV Urbani (Rabbit serum linear peptides) / Binding of a rabbit serum to looped/cyclic peptides of protein N of SARS-CoV Urbani (Rabbit serum looped peptides): unit not given here

Sequence	Binding of antibody 03-018 to linear peptides of the N protein of SARS-CoV Urbani [1]	Binding of antibody 03-018 to looped/cyclic peptides of the N protein of SARS-CoV Urbani [1]	Binding of Control Serum Blood-Bank to Looped peptides [2]	Binding of Control serum Blood-bank to linear peptides [2]	Binding of Control serum LUMC to linear peptides [2]	Binding of Control serum LUMC to looped peptides [2]	Binding of serum 1a to linear peptides of protein N of SARS-CoV Urbani [3]	Binding of serum 1a to looped/cyclic peptides of protein N of SARS-CoV Urbani [3]	Binding of serum 1b to linear peptides of protein N of SARS-CoV Urbani [3]	Binding of serum 1b to looped/cyclic peptides of protein N of SARS-CoV Urbani [3]	Binding of serum 2 to linear peptides of protein N of SARS-CoV Urbani [3]	Binding of serum 2 to looped/cyclic peptides of protein N of SARS-CoV Urbani [3]	Binding of serum 6 to looped/cyclic peptides of protein N of SARS-CoV Urbani [3]	Binding of serum 37 to looped/cyclic peptides of protein N of SARS-CoV Urbani [3]	Binding of serum 62 to looped/cyclic peptides of protein N of SARS-CoV Urbani [3]	Binding of serum London to looped/cyclic peptides of protein N of SARS-CoV Urbani [3]	Binding of serum SARS-green to looped/cyclic peptides of protein N of SARS-CoV Urbani [3]	Binding of serum SARS-yellow to looped/cyclic peptides of protein N of SARS-CoV Urbani [3]	Binding of a rabbit serum to linear peptides of protein N of SARS-CoV Urbani (Rabbit serum linear peptides) [4]	Binding of a rabbit serum to looped/cyclic peptides of protein N of SARS-CoV Urbani (Rabbit serum looped peptides) [4]	further results
RATRRVRGGDGKMKE	0.1	0.2	0.4	0.8	0.7	0.3	0.2	0.2	0.1	0.1	0.4	0.2	0.1	0.5	0.2	0.2	0.0	0.3	0.2	0.2	Binding of serum 6 to linear peptides of protein N of SARS-CoV Urbani [3]: 0.2; Binding of serum 37 to linear peptides of protein N of SARS-CoV Urbani [3]: 0.8; Binding of serum 62 to linear peptides of protein N of SARS-CoV Urbani [3]: 0.7; Binding of serum London to linear peptides of protein N of SARS-CoV Urbani [3]: 0.5; Binding of serum SARS-green to linear peptides of protein N of SARS-CoV Urbani [3]: 0.3; Binding of serum SARS-yellow to linear peptides of protein N of SARS-CoV Urbani [3]: 0.6
RGGDGKMKELSPRWY	0.1	0.2	0.6	0.6	0.6	0.6	0.2	0.3	0.1	0.2	0.2	0.4	0.3	0.5	0.4	0.4	0.3	0.4	0.1	0.4	Binding of serum 6 to linear peptides of protein N of SARS-CoV Urbani [3]: 0.2; Binding of serum 37 to linear peptides of protein N of SARS-CoV Urbani [3]: 0.7; Binding of serum 62 to linear peptides of protein N of SARS-CoV Urbani [3]: 0.6; Binding of serum London to linear peptides of protein N of SARS-CoV Urbani [3]: 0.5; Binding of serum SARS-green to linear peptides of protein N of SARS-CoV Urbani [3]: 0.3; Binding of serum SARS-yellow to linear peptides of protein N of SARS-CoV Urbani [3]: 0.6
RGGSQASSRSSSRSR	0.1	0.1	0.4	0.8	0.8	0.6		0.2		0.2		0.4	0.3	0.2	0.1	0.1	0.2	0.3	0.3	0.7	Binding of serum 1a to linear peptide (PEPSCAN-ELISA) [3]: 0.3; Binding of serum 1b to linear peptide (PEPSCAN-ELISA) [3]: 0.1; Binding of serum 2 to linear peptide (PEPSCAN-ELISA) [3]: 0.3; Binding of serum 6 to linear peptide (PEPSCAN-ELISA) [3]: 0.4; Binding of serum 37 to linear peptide (PEPSCAN-ELISA) [3]: 0.7; Binding of serum 62 to linear peptide (PEPSCAN-ELISA) [3]: 0.7; Binding of serum London to linear peptide (PEPSCAN-ELISA) [3]: 0.5; Binding of serum SARS-green to linear peptide (PEPSCAN-ELISA) [3]: 0.3; Binding of serum SARS-yellow to linear peptide (PEPSCAN-ELISA) [3]: 0.7
RGNSRNSTPGSSRGN	0.1	0.2	0.6	0.8	0.6	0.6		0.8		0.6		0.4	0.4	0.6	0.5	0.4	0.3	0.5	0.2	0.7	Binding of serum 1a to linear peptide (PEPSCAN-ELISA) [3]: 0.7; Binding of serum 1b to linear peptide (PEPSCAN-ELISA) [3]: 0.4; Binding of serum 2 to linear peptide (PEPSCAN-ELISA) [3]: 0.2; Binding of serum 6 to linear peptide (PEPSCAN-ELISA) [3]: 0.2; Binding of serum 37 to linear peptide (PEPSCAN-ELISA) [3]: 0.7; Binding of serum 62 to linear peptide (PEPSCAN-ELISA) [3]: 0.7; Binding of serum London to linear peptide (PEPSCAN-ELISA) [3]: 0.4; Binding of serum SARS-green to linear peptide (PEPSCAN-ELISA) [3]: 0.2; Binding of serum SARS-yellow to linear peptide (PEPSCAN-ELISA) [3]: 0.8
RGPEQTQGNFGDQDL	0.1	0.2	0.4	0.7	0.7	0.6		0.4		0.4		0.4	0.2	0.6	0.5	0.4	0.6	0.6	0.2	0.3	Recognition of the peptide by sera of SARS-CoV infected individuals, and form (linear, looped/cyclic) in which it is recognized [3]: recognized in linear form
